Values after ≈ are worked out from the molar mass of the structure shown.
Tests used:
[1] = test system: Mycobacterium tuberculosis; test: Antitubercular activity against Mycobacterium tuberculosis H37Rv after 7 days by MABA method; assay type: functional; settings: 168 h
[2] = Tmax in ICR mouse at 25 mg/kg, po by HPLC analysis; assay type: ADME, organism-based; settings: in vivo
[3] = Half life in ICR mouse at 25 mg/kg, po by HPLC analysis; assay type: ADME, organism-based; settings: in vivo
[4] = Aqueous solubility of the compound in 0.01 M HCl at pH 2 after 12 hrs by UV-based HPLC analysis; assay type: physicochemical
[5] = AUC (0 to infinity) in ICR mouse at 25 mg/kg, po by HPLC analysis; assay type: ADME, organism-based; design: dose 25 mg/kg, route oral, time infinity; settings: in vivo
[6] = Cmax in ICR mouse at 25 mg/kg, po by HPLC analysis; assay type: ADME, organism-based; design: dose 25 mg/kg, route oral; settings: in vivo
[7] = Cytotoxicity against African green monkey Vero cells measured after 72 hrs by MTT assay; assay type: cell-based; settings: chlorocebus sabaeus

`CCc1nc2ccc(Cl)cn2c1C(=O)NCc1ccc(N2CCN(Cc3ccc(OC(F)(F)F)cc3)CC2)cc1` showed an MIC90 [1] of less than 0.035 µM.

For `CCc1nc2ccc(Cl)cn2c1C(=O)NCc1ccc(N2CC3CN(CC4CCCCC4)CC3C2)cc1` (configuration not stated), the Tmax [2] was 0.25 h, the half-life [3] was 4.27 h and the solubility at 12 h [4] was 628 µg/mL (≈ 1210 µM). The AUC(0-inf) [5] was 9050 ng·h/mL, the Cmax [6] was 4180 ng/mL and the MIC90 [1] was less than 0.035 µM. For the same compound, the CC50 at 72 h [7] was greater than 100 µM.

Compound `CCc1nc2ccc(Cl)cn2c1C(=O)NCc1ccc(N2CC3CN(c4ccc(OC(F)(F)F)cc4)CC3C2)cc1` (configuration not stated) has an MIC90 [1] of 0.058 µM (≈ 0.0339 µg/mL).

`CCc1nc2ccc(Cl)cn2c1C(=O)NCc1ccc(N2CC3CN(Cc4ccc(OC(F)(F)F)cc4)CC3C2)cc1` (configuration not stated) showed a Tmax [2] of 0.83 h, a half-life [3] of 5.23 h and a solubility at 12 h [4] of 1130 µg/mL (≈ 1880 µM). For the same compound, the AUC(0-inf) [5] was 19800 ng·h/mL, the Cmax [6] was 2670 ng/mL and the MIC90 [1] was less than 0.035 µM. The CC50 at 72 h [7] was 20.5 µM.

`CCc1nc2ccc(Cl)cn2c1C(=O)NCc1ccc(N2CCC3(CC2)CCN(c2ccc(OC(F)(F)F)cc2)CC3)cc1` showed a Tmax [2] of 2.67 h, a half-life [3] of 12.3 h and a solubility at 12 h [4] of 1110 µg/mL (≈ 1770 µM). It also gave an AUC(0-inf) [5] of 153000 ng·h/mL, a Cmax [6] of 7420 ng/mL and an MIC90 [1] of less than 0.035 µM. The CC50 at 72 h [7] was 70.2 µM.

With `CCc1nc2ccc(Cl)cn2c1C(=O)NCc1ccc(N2CC3CCC2CN3CC2CCCCC2)cc1` (configuration not stated) the MIC90 [1] was 0.062 µM (≈ 0.0322 µg/mL).

In the case of `CCc1nc2ccc(Cl)cn2c1C(=O)NCc1ccc(N2CCN(CCC3CCCCC3)CC2)cc1`, the MIC90 [1] is reported as 0.103 µM (≈ 0.0523 µg/mL).

With `CCc1nc2ccc(Cl)cn2c1C(=O)NCc1ccc(N2CCN(CC3CCCCC3)CC2)cc1` the Tmax [2] was 0.25 h, the half-life [3] was 2.75 h and the solubility at 12 h [4] was 1230 µg/mL (≈ 2500 µM). For the same compound, the AUC(0-inf) [5] was 53800 ng·h/mL, the Cmax [6] was 24100 ng/mL and the MIC90 [1] was less than 0.035 µM. The CC50 at 72 h [7] was 53.5 µM.

In the case of `CCc1nc2cc(Cl)ccn2c1C(=O)NCc1ccc(N2CC3CC2CN3CC2CCCCC2)cc1` (configuration not stated), the MIC90 [1] is reported as 1.27 µM (≈ 0.641 µg/mL).

Compound `CCc1nc2cc(Cl)ccn2c1C(=O)NCc1ccc(N2CC3CCC2CN3CC2CCCCC2)cc1` (configuration not stated) has an MIC90 [1] of 1.48 µM (≈ 0.769 µg/mL).

In the case of `CCc1nc2cc(Cl)ccn2c1C(=O)NCc1ccc(N2CCN(CCC3CCCCC3)CC2)cc1`, the MIC90 [1] is reported as 1.59 µM (≈ 0.81 µg/mL).

With `CCc1nc2cc(Cl)ccn2c1C(=O)NCc1ccc(N2CCN(CC3CCCCC3)CC2)cc1` the MIC90 [1] was 0.84 µM (≈ 0.415 µg/mL).

Work on `CCc1nc2ccc(Cl)cn2c1C(=O)NCc1ccc(N2CC3CC2CN3CC2CCCCC2)cc1` (configuration not stated) yielded an MIC90 [1] of 0.452 µM (≈ 0.229 µg/mL).

`NNC(=O)c1ccncc1` [ISONIAZID] showed an MIC90 [1] of 0.277 µM (≈ 0.038 µg/mL).

`O=c1nc(N2CCN(CC3CCCCC3)CC2)sc2c([N+](=O)[O-])cc(C(F)(F)F)cc12` [MACOZINONE] gave an MIC90 [1] of less than 0.035 µM.

For `CO[C@H]1/C=C/O[C@@]2(C)Oc3c(C)c(O)c4c(O)c(c(/C=N/N5CCN(C)CC5)c(O)c4c3C2=O)NC(=O)/C(C)=C\C=C\[C@H](C)[C@H](O)[C@@H](C)[C@@H](O)[C@@H](C)[C@H](OC(C)=O)[C@@H]1C` [RIFAMPIN], the MIC90 [1] was 0.038 µM (≈ 0.0313 µg/mL).

Compound `CCc1nc2ccc(Cl)cn2c1C(=O)NCc1ccc(N2CCC(c3ccc(OC(F)(F)F)cc3)CC2)cc1` [TELACEBEC] has an MIC90 [1] of less than 0.035 µM and a CC50 at 72 h [7] greater than 100 µM.

Reference: ChEMBL document CHEMBL4400510, “Synthesis and antitubercular evaluation of reduced lipophilic imidazo[1,2-a]pyridine-3-carboxamide derivatives” (Eur J Med Chem, 2019)
